Like-named read-outs stand apart in the source and are kept apart here.
What was measured:
EPO [1] = assay: EPO expression at the cellular level (EPO kit); format: cell-based; conditions: Hep3B human hepatoma cell, 24 h after administration
Procedure: (§1) The test of the activity of some compounds of the present invention on VEGF at the cellular level and EPO at the cellular level is shown as follows. The method is in accordance with Bioorganic & Medicinal Chemistry Letters 23 (2013) 5953-5957, and the test was carried out by using VEGF and EPO kit respectively 24 h after administration.
(§2) Hep3B Cell: Human Hepatoma Cell

VEGF [2] = assay: VEGF expression at the cellular level (VEGF kit); format: cell-based; conditions: Hep3B human hepatoma cell, 24 h after administration
Procedure: as §1, §2

HIF-α = assay: Western-blot test of HIF-α level in cells; format: cell-based, human; conditions: Hep3B cell, 50 μM, 250 μM, 24 hours after administration
Procedure: At the same time, Western-blot test at the cellular level was also carried out for some of the compounds of the present invention.
FIG. 1 is the results of Western-blot test of some compounds at the cellular level (Hep3B cell: human hepatoma cell; the compound concentration: 50 μM, 250 μM, 24 hours after administration)

VEGF [3] = assay: VEGF level at the animal level (VEGF kit); format: in vivo; conditions: C57Bl/6 mice, male, 8-9 weeks old; 50 μM; 24 h / 4 h after administration
Procedure: (§3) The test of the activity of some compounds of the present invention on VEGF at the animal level and EPO at the cellular level is shown as follows. The method is in accordance with Journal of Medicinal Chemistry 55 (2012) 2945-2959, and the test was carried out by using VEGF and EPO kit respectively 4 h after administration.

EPO [4] = assay: EPO level at the animal level (EPO kit); format: in vivo; conditions: C57Bl/6 mice, male, 8-9 weeks old; 50 μM; 24 h / 4 h after administration
Procedure: as §3

Prolyl hydroxylase 2 = Prolyl hydroxylase 2 (Homo sapiens (Human), UniProt Q9GZT9); assay: Prolyl hydroxylase 2 inhibition, fluorescence polarization method; format: biochemical
[5] = fluorescence polarization, read 1 h after adding the drugs, read-out: Prolyl hydroxylase 2 (IC50 nM)

Sequence of Prolyl hydroxylase 2 (Q9GZT9 whole entry): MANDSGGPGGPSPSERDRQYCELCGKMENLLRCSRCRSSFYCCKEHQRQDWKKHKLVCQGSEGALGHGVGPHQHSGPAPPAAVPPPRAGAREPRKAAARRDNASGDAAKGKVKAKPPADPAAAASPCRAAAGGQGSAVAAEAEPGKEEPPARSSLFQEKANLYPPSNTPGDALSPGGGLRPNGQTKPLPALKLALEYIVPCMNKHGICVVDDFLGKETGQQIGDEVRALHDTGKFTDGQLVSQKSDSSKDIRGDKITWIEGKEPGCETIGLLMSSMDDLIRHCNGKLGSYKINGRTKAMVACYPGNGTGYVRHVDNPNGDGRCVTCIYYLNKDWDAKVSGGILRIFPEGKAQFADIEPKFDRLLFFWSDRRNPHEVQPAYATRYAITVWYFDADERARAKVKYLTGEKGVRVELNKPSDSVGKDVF

Row | SMILES | Whether it can increase the expression of EPO in cells (EPO [1]) | Whether it can increase the expression of VEGF in cells (VEGF [2]) | Whether it can increase the level of HIF-α in cells (HIF-α) | increased level of VEGF at the animal level (FIG. 2) (VEGF [3]) | increased level of EPO at the animal level (FIG. 2) (EPO [4]) | IC50 (Prolyl hydroxylase 2; [5]) [nM] | IC50 (Prolyl hydroxylase 2; Table 2 comparison, same test method, same batch, read-out: Prolyl hydroxylase 2 (IC50 nM), example compounds of the present invention) [nM]
1 | Cc1cccc(C#Cc2cnc(C(=O)NCC(=O)O)c(O)c2)c1 [Example 14, 2-(3-Hydroxy-5-m-methylphenylethynyl)picolinamido acetic acid] | Yes | Yes | Yes | increased level | increased level |  | 
2 | O=C(O)CNC(=O)c1ncc(C#Cc2ccc(F)cc2)cc1O [Example 15, 2-(3-Hydroxy-5-p-fluorophenylethynyl)picolinamido acetic acid] | Yes | Yes | Yes | increased level | increased level |  | 
3 | Cc1ccc(OCC#Cc2cnc(C(=O)NCC(=O)O)c(O)c2)cc1 [Example 34, 2-(3-Hydroxy-5-(3-p-tolyloxypropyn-1-yl))picolinamido acetic acid] | Yes | Yes | Yes |  |  | 110 ± 22 | 
4 | Cc1cccc(OCC#Cc2cnc(C(=O)NCC(=O)O)c(O)c2)c1C [Example 38, 2-(3-Hydroxy-5-(3-(2,3-dimethylphenyl)oxypropyn-1-yl))picolinamido acetic acid] | Yes | Yes | Yes |  |  |  | 
5 | O=C(O)CNC(=O)c1ncc(C#CCOc2ccc(Cl)cc2)cc1O [Example 44, 2-(3-Hydroxy-5-(3-p-chlorophenoxypropyn-1-yl))picolinamido acetic acid] | Yes | Yes | Yes |  |  | 13.7 ± 1.1 | 13.7 ± 1.1
6 | O=C(O)CNC(=O)c1ncc(C#CCOc2ccccc2Cl)cc1O [Example 45, 2-(3-Hydroxy-5-(3-o-chlorophenoxypropyn-1-yl))picolinamido acetic acid] | Yes | Yes |  |  |  | 175 ± 2.3 | 
7 | O=C(O)CNC(=O)c1ncc(C#CCOc2cccc(Cl)c2)cc1O [Example 46, 2-(3-Hydroxy-5-(3-m-chlorophenoxypropyn-1-yl))picolinamido acetic acid] | Yes | Yes |  |  |  | 102 ± 5 | 
8 | O=C(O)CNC(=O)c1ncc(C#CCOc2ccc(F)cc2)cc1O [Example 47, 2-(3-Hydroxy-5-(3-p-fluorophenoxypropyn-1-yl))picolinamido acetic acid] | Yes | Yes |  | increased level | increased level | 187 ± 8.3 | 
9 | O=C(O)CNC(=O)c1ncc(C#CCOc2ccc(-c3ccccc3)cc2)cc1O [Example 57, 2-(3-Hydroxy-5-(3-p-phenylphenoxypropyn-1-yl))picolinamido acetic acid] | Yes | Yes |  |  |  | 540 ± 3.6 | 
10 | O=C(O)CNC(=O)c1ncc(C#CCNc2ccccc2)cc1O [Example 64, 2-(3-Hydroxy-5-(3-anilinopropyn-1-yl))picolinamido acetic acid] | Yes | Yes |  |  |  | 326.5 ± 0.8 | 
11 | O=C(O)CNC(=O)c1ncc(C#CCNc2ccc(Cl)cc2)cc1O [Example 65] | Yes | Yes | Yes |  |  |  | 
12 | Cc1nc(C(=O)NCC(=O)O)c(O)c2ccc(Oc3ccccc3)cc12 [FG-4592, reference compound] | Yes | Yes |  | increased level | increased level |  | 
